Source: PubChem BioAssay (NCI)
Values joined by “and” are separate entries in the source; they are usually repeats but may differ in a detail not shown here. Identical values can stand only once.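 Values below derive from 48-hour exposures of cells grown in 96-well plates, with endpoints linearly interpolated between the two concentrations bracketing the appropriate inhibition level. GI50: concentration for 50% inhibition of growth. The concentration for full growth arrest is given as TGI.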

How the values were obtained:
Assay in all cases: DTP human tumour cell line panel, 48 h
786-0 renal = tested on: 786-0 renal
A498 renal = tested on: A498 renal
HCC-2998 colon = tested on: HCC-2998 colon
HL-60(TB) leukemia = tested on: HL-60(TB) leukemia
HOP-92 NSCLC = tested on: HOP-92 NSCLC
HT29 colon = tested on: HT29 colon
MDA-MB-231 breast = tested on: MDA-MB-231 breast
MDA-N = tested on: MDA-N
NCI-H522 lung = tested on: NCI-H522 lung
OVCAR-3 ovarian = tested on: OVCAR-3 ovarian
PC-3 prostate = tested on: PC-3 prostate
SF-268 CNS = tested on: SF-268 CNS
SF-539 CNS = tested on: SF-539 CNS
UACC-62 melanoma = tested on: UACC-62 melanoma
UO-31 renal = tested on: UO-31 renal

| Structure (SMILES) | TGI (786-0 renal) | TGI (A498 renal) | TGI (HCC-2998 colon) | TGI (HL-60(TB) leukemia) | TGI (HOP-92 NSCLC) | TGI (HT29 colon) | TGI (MDA-MB-231 breast) | TGI (MDA-N) | TGI (NCI-H522 lung) | TGI (OVCAR-3 ovarian) | TGI (PC-3 prostate) | TGI (SF-268 CNS) | TGI (SF-539 CNS) | TGI (UACC-62 melanoma) | TGI (UO-31 renal) | GI50 (MDA-N) [µM] | GI50 (SF-268 CNS) [µM] | GI50 (SF-539 CNS) |
| --- | --- | --- | --- | --- | --- | --- | --- | --- | --- | --- | --- | --- | --- | --- | --- | --- | --- | --- |
| CC(C)NC(=O)OCc1c(COC(=O)NC(C)C)c(-c2cc[n+](COC(=O)C(C)(C)C)cc2)n2c1CCC2 | > 100 µM | > 100 µM | > 100 µM | > 100 µM | > 100 µM | > 100 µM | > 100 µM | > 100 µM | > 100 µM | > 100 µM | > 100 µM | > 100 µM | > 100 µM | > 100 µM | > 100 µM |  |  |  |
| Cc1ccc(Nc2c(C#N)[n+]([O-])c3cc(Cl)ccc3[n+]2[O-])cc1 | > 100 µM | > 100 µM | > 100 µM | 21.1 µM | > 100 µM | > 61.1 µM | > 100 µM | > 100 µM | > 74.8 µM | > 42.4 µM | > 100 µM | > 100 µM | > 100 µM | > 100 µM | > 100 µM |  |  |  |
| Cc1oc2c(Cl)cc(O)c(Cl)c2c2cccc1-2 | 76 µM | > 100 µM | > 100 µM | > 100 µM | 52.1 µM | > 100 µM | > 100 µM | 60.3 µM | 83.3 µM | 56.6 µM | > 100 µM | > 100 µM | 71.4 µM | > 100 µM | > 100 µM |  |  |  |
| O=c1ccn(C2OC(CO)C(O)C2[Se]c2ccccc2)c(=O)[nH]1 (stereo not drawn) | > 100 µM | > 100 µM | > 100 µM | > 100 µM | > 100 µM | > 100 µM | > 100 µM | > 100 µM | > 100 µM | > 100 µM | > 100 µM | > 100 µM | > 100 µM | 7.31 µM | > 100 µM |  |  |  |
| COc1ccc2[nH]cc([C@@H]3C4CCC(C4)[C@H]3NCc3cccc(CN[C@H]4C5CCC(C5)[C@@H]4c4c[nH]c5ccc(OC)cc45)c3)c2c1 | 1.9 µM and 2 µM | 3.22 µM and 3.25 µM | 0.53 µM and 0.842 µM | 0.453 µM and 0.503 µM | 2.6 µM and 2.59 µM | 1.81 µM and 0.63 µM | 2.42 µM and 2.98 µM | 2.04 µM and 2.2 µM | 2.48 µM and 2.83 µM | 2.89 µM and 3.02 µM | 2.93 µM and 2.59 µM | 2.52 µM and 2.93 µM | 3.21 µM and 2.5 µM | 3.19 µM | 2.85 µM and 2.64 µM | 0.776 | 1.23 |  |
| O=C(c1ccccc1)c1ccc(-n2c3ccccc3c3ccc4c(c32)C(=O)C=CC4=O)cc1 | 5.77 µM | 25.3 µM | 29.6 µM | 18.2 µM | 18.6 µM | 8.35 µM | 26.2 µM | 40.6 µM | 8.9 µM | 20.8 µM | 25.8 µM | 26.3 µM | 34.2 µM | 26.7 µM | 7.78 µM |  |  |  |
| COC(=O)C1OC(O[C@H]2CC[C@]3(C)[C@H]4CC=C5[C@@H]6CC(C)(C)CC[C@]6(C(=O)OC6OCC(O)C(O)C6OC6OC(C)C(OC7OCC(O)C(OC8OCC(O)C(O)C8O)C7O)C(OC7OCC(O)C(O)C7O)C6O)CC[C@@]5(C)[C@]4(C)CC[C@H]3C2(C)C)C(O)C(OC2OCC(O)C(O)C2O)C1O (stereo partly drawn) | > 100 µM and 16.6 µM | 3.55 µM and 4.34 µM | 3.13 µM and 3.37 µM | 4.36 µM and 5.23 µM | 5.25 µM and 7.62 µM | 10.1 µM and 10.9 µM | 8.81 µM and 13.5 µM | 3.35 µM and 4.04 µM | 5.32 µM and 5.78 µM | > 100 µM and 45.9 µM | 18.9 µM and 16.4 µM | > 76.2 µM and 19.9 µM | > 100 µM | 8.36 µM and 13.7 µM | 4.36 µM and 4.14 µM |  |  | > 100 µM and 47.6 µM |
| NCCN1C(=O)CN=C(c2ccc(Cl)cc2)c2cc(Cl)ccc21 | 30.4 µM | 33.8 µM | 31.8 µM | 37.7 µM | 39.7 µM | 36 µM | 30.5 µM | 31.4 µM | 37.3 µM | 29.3 µM | 30.1 µM | 30.4 µM | 34.1 µM | 32.2 µM | 27.3 µM |  |  |  |
| CN(C)P(=O)(Oc1ccc(CC(NC(=O)OCc2ccccc2)C(=O)OCc2ccccc2)cc1)N(C)C (stereo not drawn) | 17.5 µM | 38.1 µM | 37.8 µM | 32.9 µM | 34.9 µM | 24.6 µM | 34.3 µM | 34 µM | 30.9 µM | 11.4 µM | 29.9 µM | 27.8 µM | 39.7 µM | 31.5 µM | 33.3 µM |  |  |  |
| COc1cc(OC)c2nc(C)c3c(c2c1)NCC3 | 17.2 µM | 27.7 µM | 20.3 µM | 40.7 µM | 30.9 µM | 15.5 µM | 21.8 µM | 21.1 µM | 19.6 µM | 33.4 µM | 20 µM | 20 µM | 16.4 µM | 22.4 µM | 27.5 µM |  |  |  |
| CCCCCCOc1ccc(C(=O)NO)cc1 | 16.6 µM | 28.1 µM | 28.3 µM | 14 µM | 40 µM | 22.7 µM | 21.9 µM | 34.1 µM | 19.7 µM | 28.6 µM | 35.2 µM | 28.7 µM | 45.7 µM | 20.6 µM | 20.1 µM |  |  |  |
| CC(=O)Nc1ccc(-c2nc3ccccc3s2)cc1I | 44.5 µM | 36.3 µM | > 100 µM | > 100 µM | > 88.9 µM | > 100 µM | > 65.1 µM | > 100 µM | > 100 µM | 32.4 µM | > 100 µM | 97.4 µM | 55.6 µM | > 76.9 µM | 67.9 µM |  |  |  |
| Nc1ccn(C2CCC(CO)O2)c(=S)n1 (stereo not drawn) | > 100 µM | > 100 µM | > 100 µM | > 100 µM | > 100 µM | > 100 µM | > 100 µM | > 100 µM | > 100 µM | > 100 µM | > 100 µM | > 100 µM | > 100 µM | > 100 µM | > 100 µM |  |  |  |
| COc1cccc2c1OC(c1ccc(C#N)cc1)C([N+](=O)[O-])=C2 (stereo not drawn) | 11.9 µM | 4.03 µM | 3.15 µM | 5.62 µM | 3.27 µM | 3.14 µM | 2.92 µM | 2.87 µM | 0.412 µM | 4.6 µM | 4.13 µM | 16.1 µM | 4.23 µM | 3.33 µM | 3.01 µM |  |  |  |
